According to patent publication US20110232180A1, “Method of applying calcium magnesium acetate to affect growth of unwanted broadleaf weeds in lawn grasses” (priority 2010, published 2011):

Assays:
[1] = system: environment, ducks and fish; details: cited from earlier work
[2] = system: violet weeds; assay: calcium magnesium acetate grains or triclopyr liquid applied to violet weeds in lawn grasses; type: in vivo
From the text: (§1) These are not mandatory steps, it simply helps reduce fall off of the grains on the leaves. Alternatively, without the binder and size reduction, the grains could rest by simple placement on the leaves of the weed.

[3] = system: broadleaf weeds; details: granular substance applied to the leaves of the weeds
From the text: A novel unknown use of calcium magnesium acetate is as an effective eliminator of certain broadleaf weeds which invade lawn grasses. When applying the granular substance to the leaves of the weeds, it can produce desired results, very quickly, much faster then many previously known toxic compositions. This method can work in as little as two days.
as §1

[4] = system: common lawn grasses
[5] = system: testosterone in men; details: by-product of triclopyr; cited from earlier work

Compound	toxicity to the environment [1]	treatments needed to affect violet weeds ([2]; liquid form applied once a month to lawns with violet weeds)	time in which the method works on broadleaf weeds [3]	effect on lawn grasses around or near the violet weeds ([4]; applied by the method (grains isolated on the target weed, limited amount))	effect on lawn grasses ([4]; extreme over applications of the granular product)	time in which the grains eliminate / control violet weeds ([2]; grains applied to leaves of violet weeds in lawn)	effect on testosterone in men [5]
O=C(O)COc1nc(Cl)c(Cl)cc1Cl [triclopyr, reference compound]	slightly toxic to the environment, ducks and fish	several monthly treatments just to diminish part of the plant					
calcium magnesium acetate	non-toxic to the environment		two	little or no adverse affect	did affect common lawn grasses	two	
tricloropyridine							lower testosterone in men
